Results from paper PMC9596378, “Discovery and molecular basis of subtype-selective cyclophilin inhibitors” (Nature Chemical Biology, 2022).
Where two headings read alike, the source gives them in different places.

Assays:
[1] = target: CypD (Homo sapiens, UniProt P30405); experiment: Chymotrypsin coupled prolyl-isomerase assay; settings: read-out: Wild-Type Cyclophilin Prolyl Isomerase Inhibition IC50 Values, CypD; wild-type CypD
[2] = target: T1, CypB (Homo sapiens, UniProt P23284); experiment: biochemical
T1 construct: PPIB (UniProtKB Entry P23284: residues 34–216); His6 with TEV site (2BT vector leader) (N); made in house; host or cells: E. coli BL21(DE3)
Experimental: Adapting a previously described protocol, with an Agilent Bravo Velocity 11 with a 384ST head, 90 µL assay buffer (25 mM HEPES pH 7.3, 100 mM NaCl, 0.01% Triton X-100) containing 5.28 nM cyclophilin was added into a flat, clear-bottom, black 384-well plate pre-chilled in a Corning CoolBox at 2–3 °C. Five microliters of compound pre-dissolved in 5% DMSO/assay buffer was then added to appropriate wells and incubated at 2–3 °C for 5 min. Five microliters of 0.5 mM α-chymotrypsin from bovine pancreas (Type II, lyophilized powder, Millipore-Sigma) in 20% 1 mM HCl/Assay Buffer was then added to each well and incubated at 2–3 °C for 5 min. The plate was then quickly transferred to a FLIPR Tetra High-Throughput Cellular Screening System (Molecular Devices). Using the internal liquid handling system of the FLIPR, 1 µL 0.5 mM Suc-AAPF-AMC (Chymotrypsin Substrate II, Millipore-Sigma) dissolved in 0.55 M LiCl/2,2,2-trifluoroethanol was added to each well, which was then mixed for 5 s, followed by immediate fluorescence measurements every 1 s for 330 s using a 360–380 nm excitation LED module and a 400–460 nm emission filter. Final concentrations of the plate include 5 nM cyclophilin, 0.25% DMSO, 25 µM α-chymotrypsin, 5 µM Suc-AAPF-AMC. Raw fluorescence data was analyzed by non-linear regression analysis with Prism v.9 by fitting one-phase association curves to each well. […] Rate constants calculated for each well (s^−1) were then normalized to substrate only (no prolyl-isomerase) and enzyme + substrate only controls. IC50 values were calculated as the value at which 50% inhibition was achieved on the non-linear regression fitted curve of each compound.

[3] = target: T2, NKTR (Homo sapiens, UniProt P30414); experiment: Chymotrypsin coupled prolyl-isomerase assay; type: biochemical
T2 construct: NKTR (UniProtKB Entry P30414: residues 7–179); host or cells: E. coli BL21(DE3)
T2 sequence (P30414 7-179): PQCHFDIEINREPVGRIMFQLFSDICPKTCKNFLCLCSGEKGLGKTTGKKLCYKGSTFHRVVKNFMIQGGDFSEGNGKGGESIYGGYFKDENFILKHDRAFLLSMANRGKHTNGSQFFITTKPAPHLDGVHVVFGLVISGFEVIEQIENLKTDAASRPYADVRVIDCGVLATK

[4] = target: T3, PPIL1 (Homo sapiens, UniProt Q9Y3C6); experiment: Chymotrypsin coupled prolyl-isomerase assay; type: biochemical
T3 construct: PPIL1 (UniProtKB Entry Q9Y3C6: residues 1–166); made in house; host or cells: E. coli BL21(DE3)
T3 sequence (Q9Y3C6 1-166): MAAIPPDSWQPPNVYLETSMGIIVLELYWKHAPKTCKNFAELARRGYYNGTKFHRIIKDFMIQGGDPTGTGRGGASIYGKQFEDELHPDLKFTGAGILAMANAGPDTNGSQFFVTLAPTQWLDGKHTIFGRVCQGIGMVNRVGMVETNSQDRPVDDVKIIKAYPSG

[5] = target: T4, PPWD1 (Homo sapiens, UniProt Q96BP3); experiment: Chymotrypsin coupled prolyl-isomerase assay; type: biochemical; settings: wild-type PPWD1; read-out: Wild-Type Cyclophilin Prolyl Isomerase Inhibition IC50 Values, PPWD1
T4 construct: PPWD1 (UniProtKB Entry Q96BP3: residues 473–646); host or cells: E. coli BL21(DE3)
T4 sequence (Q96BP3 473-646): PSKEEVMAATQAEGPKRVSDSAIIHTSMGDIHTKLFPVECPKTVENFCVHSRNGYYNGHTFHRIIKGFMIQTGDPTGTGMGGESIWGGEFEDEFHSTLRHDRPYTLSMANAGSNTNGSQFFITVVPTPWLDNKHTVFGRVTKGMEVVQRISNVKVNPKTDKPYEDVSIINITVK

T1 sequence (P23284 34-216): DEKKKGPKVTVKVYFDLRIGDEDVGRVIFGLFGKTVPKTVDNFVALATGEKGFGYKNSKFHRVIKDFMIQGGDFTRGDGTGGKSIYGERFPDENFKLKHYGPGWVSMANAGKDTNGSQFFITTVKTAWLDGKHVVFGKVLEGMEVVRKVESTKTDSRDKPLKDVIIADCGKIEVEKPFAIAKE
CypD, sequence (P30405 45-207): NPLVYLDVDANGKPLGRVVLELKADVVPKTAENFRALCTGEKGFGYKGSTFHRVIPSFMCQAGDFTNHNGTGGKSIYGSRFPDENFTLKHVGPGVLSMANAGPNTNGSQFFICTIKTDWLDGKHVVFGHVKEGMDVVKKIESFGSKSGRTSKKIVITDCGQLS

Compound: NC(=O)[C@@H]1CCNC(=O)/C=C/C(=O)N2CCC[C@](Cc3ccccc3)(C2)C(=O)N[C@@H](Cc2ccc(-c3cccc(B(O)O)c3)cc2)C(=O)NCc2ccccc2CC(=O)N1 [Compound C6A]
- IC50 [1]: 1.1 µM
- IC50 ([2]; prolyl-isomerase inhibition, 5 nM cyclophilin, read-out: IC50 CypB): ~8 µM
- IC50 ([2]; wild-type CypB, read-out: Wild-Type Cyclophilin Prolyl Isomerase Inhibition IC50 Values, CypB): 8 µM
- IC50 ([3]; prolyl-isomerase inhibition, 5 nM cyclophilin, read-out: IC50 NKTR): > 10 µM
- IC50 ([3]; wild-type NKTR, read-out: Wild-Type Cyclophilin Prolyl Isomerase Inhibition IC50 Values, NKTR): 5 µM
- IC50 ([4]; prolyl-isomerase inhibition, 5 nM cyclophilin, read-out: IC50 PPIL1): ~5 µM
- IC50 ([4]; wild-type PPIL1, read-out: Wild-Type Cyclophilin Prolyl Isomerase Inhibition IC50 Values, PPIL1): > 10 µM
- IC50 [5]: > 10 µM
